{"source": "ChEMBL document CHEMBL1201862", "about": "“PubChem BioAssay data set” (2004)", "assay_in_all_cases": "DTP human tumour cell line panel, 48 h", "key": {"[1]": {"system": "786-0"}, "[2]": {"system": "A498"}, "[3]": {"system": "A549"}, "[4]": {"system": "ACHN"}, "[5]": {"system": "CAKI-1"}, "[6]": {"system": "CCRF-CEM"}, "[7]": {"system": "COLO 205"}, "[8]": {"system": "DLD-1"}, "[9]": {"system": "DMS-114"}, "[10]": {"system": "DMS-273"}, "[11]": {"system": "EKVX"}, "[12]": {"system": "HCC 2998"}, "[13]": {"system": "HCT-116"}, "[14]": {"system": "HCT-15"}, "[15]": {"system": "HL-60"}, "[16]": {"system": "HOP-18"}, "[17]": {"system": "HOP-62"}, "[18]": {"system": "HOP-92"}, "[19]": {"system": "HT-29"}, "[20]": {"system": "IGROV-1"}, "[21]": {"system": "K562"}, "[22]": {"system": "KM-20L2"}, "[23]": {"system": "KM12"}, "[24]": {"system": "LOX IMVI"}, "[25]": {"system": "LXFL 529"}, "[26]": {"system": "M14"}, "[27]": {"system": "M19-MEL"}, "[28]": {"system": "MOLT-4"}, "[29]": {"system": "Malme-3M"}, "[30]": {"system": "NCI-H226"}, "[31]": {"system": "NCI-H23"}, "[32]": {"system": "NCI-H460"}, "[33]": {"system": "NCI-H522"}, "[34]": {"system": "OVCAR-3"}, "[35]": {"system": "OVCAR-4"}, "[36]": {"system": "OVCAR-5"}, "[37]": {"system": "OVCAR-8"}, "[38]": {"system": "RPMI-8226"}, "[39]": {"system": "SF-268"}, "[40]": {"system": "SF-295"}, "[41]": {"system": "SF-539"}, "[42]": {"system": "SK-MEL-28"}, "[43]": {"system": "SK-MEL-2"}, "[44]": {"system": "SK-MEL-5"}, "[45]": {"system": "SK-OV-3"}, "[46]": {"system": "SN12C"}, "[47]": {"system": "SNB-19"}, "[48]": {"system": "SNB-75"}, "[49]": {"system": "SW-620"}, "[50]": {"system": "TK-10"}, "[51]": {"system": "U-251"}, "[52]": {"system": "UACC-62"}, "[53]": {"system": "MCF7"}, "[54]": {"system": "NCI/ADR-RES"}, "[55]": {"system": "RXF 393"}, "[56]": {"system": "SNB-78"}, "[57]": {"system": "UACC-257"}, "[58]": {"system": "UO-31"}}, "note": "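Cells were grown in 96-well plates and exposed to each compound for 48 hours at five concentrations; endpoints were interpolated linearly between bracketing concentrations, or set to the highest concentration if not reached. At the GI50, growth is halved.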 Calls of active or inactive are those of the source. Cut-off read from the data, not from the text of the source: active = GI50 up to about 1.1 µM and inactive = higher."}
{"smiles": "CCOC(=O)C(=Cc1ccc(C(=O)OC)cc1)C(=O)OCC", "values": [{"measurement": "GI50", "setting": "[1]", "result": "1.62 µM (inactive)"}, {"measurement": "GI50", "setting": "[2]", "result": "13.2 µM (inactive)"}, {"measurement": "GI50", "setting": "[3]", "result": "3.37 µM (inactive)"}, {"measurement": "GI50", "setting": "[4]", "result": "1.69 µM (inactive)"}, {"measurement": "GI50", "setting": "[5]", "result": "1.67 µM (inactive)"}, {"measurement": "GI50", "setting": "[6]", "result": "1.58 µM (inactive)"}, {"measurement": "GI50", "setting": "[7]", "result": "1.85 µM (inactive)"}, {"measurement": "GI50", "setting": "[8]", "result": "2.12 µM (inactive)"}, {"measurement": "GI50", "setting": "[9]", "result": "1.66 µM (inactive)"}, {"measurement": "GI50", "setting": "[10]", "result": "1.71 µM (inactive)"}, {"measurement": "GI50", "setting": "[11]", "result": "11.1 µM (inactive)"}, {"measurement": "GI50", "setting": "[12]", "result": "4.06 µM (inactive)"}, {"measurement": "GI50", "setting": "[13]", "result": "3.33 µM (inactive)"}, {"measurement": "GI50", "setting": "[14]", "result": 2.37, "unit": "µM"}, {"measurement": "GI50", "setting": "[15]", "result": "1.54 µM (inactive)"}, {"measurement": "GI50", "setting": "[16]", "result": "3.49 µM (inactive)"}, {"measurement": "GI50", "setting": "[17]", "result": "2.2 µM (inactive)"}, {"measurement": "GI50", "setting": "[18]", "result": "1.67 µM (inactive)"}, {"measurement": "GI50", "setting": "[19]", "result": "3.21 µM (inactive)"}, {"measurement": "GI50", "setting": "[20]", "result": "3.01 µM (inactive)"}, {"measurement": "GI50", "setting": "[21]", "result": "2.32 µM (inactive)"}, {"measurement": "GI50", "setting": "[22]", "result": "0.845 µM (active)"}, {"measurement": "GI50", "setting": "[23]", "result": "2.92 µM (inactive)"}, {"measurement": "GI50", "setting": "[24]", "result": "1.73 µM (inactive)"}, {"measurement": "GI50", "setting": "[25]", "result": "1.75 µM (inactive)"}, {"measurement": "GI50", "setting": "[26]", "result": "1.69 µM (inactive)"}, {"measurement": "GI50", "setting": "[27]", "result": "2.75 µM (inactive)"}, {"measurement": "GI50", "setting": "[28]", "result": "2.61 µM (inactive)"}, {"measurement": "GI50", "setting": "[29]", "result": "1.8 µM (inactive)"}, {"measurement": "GI50", "setting": "[30]", "result": "2.08 µM (inactive)"}, {"measurement": "GI50", "setting": "[31]", "result": "1.76 µM (inactive)"}, {"measurement": "GI50", "setting": "[32]", "result": "21.1 µM (inactive)"}, {"measurement": "GI50", "setting": "[33]", "result": "1.33 µM (inactive)"}, {"measurement": "GI50", "setting": "[34]", "result": "3.41 µM (inactive)"}, {"measurement": "GI50", "setting": "[35]", "result": "3.78 µM (inactive)"}, {"measurement": "GI50", "setting": "[36]", "result": "7.16 µM (inactive)"}, {"measurement": "GI50", "setting": "[37]", "result": "2.98 µM (inactive)"}, {"measurement": "GI50", "setting": "[38]", "result": "1.37 µM (inactive)"}, {"measurement": "GI50", "setting": "[39]", "result": "2.4 µM (inactive)"}, {"measurement": "GI50", "setting": "[40]", "result": "5.26 µM (inactive)"}, {"measurement": "GI50", "setting": "[41]", "result": "1.67 µM (inactive)"}, {"measurement": "GI50", "setting": "[42]", "result": "1.71 µM (inactive)"}, {"measurement": "GI50", "setting": "[43]", "result": "1.75 µM (inactive)"}, {"measurement": "GI50", "setting": "[44]", "result": "2.05 µM (inactive)"}, {"measurement": "GI50", "setting": "[45]", "result": "13.6 µM (inactive)"}, {"measurement": "GI50", "setting": "[46]", "result": "2.25 µM (inactive)"}, {"measurement": "GI50", "setting": "[47]", "result": "2.39 µM (inactive)"}, {"measurement": "GI50", "setting": "[48]", "result": "2.07 µM (inactive)"}, {"measurement": "GI50", "setting": "[49]", "result": "2.24 µM (inactive)"}, {"measurement": "GI50", "setting": "[50]", "result": "2.88 µM (inactive)"}, {"measurement": "GI50", "setting": "[51]", "result": "1.66 µM (inactive)"}, {"measurement": "GI50", "setting": "[52]", "result": "2.04 µM (inactive)"}]}
{"smiles": "C[C@@]12CC[C@H]3[C@@H]4CCC(=O)N[C@@]4(C)CC[C@@H]3[C@@]1(C)CC[C@H](OC(=O)Cc1ccc(N(CCCl)CCCl)cc1)C2", "values": [{"measurement": "GI50", "setting": "[2]", "result": "18.7 µM (inactive)"}, {"measurement": "GI50", "setting": "[3]", "result": "15.7 µM (inactive)"}, {"measurement": "GI50", "setting": "[5]", "result": "16.5 µM (inactive)"}, {"measurement": "GI50", "setting": "[6]", "result": "11.5 µM (inactive)"}, {"measurement": "GI50", "setting": "[7]", "result": "20.4 µM (inactive)"}, {"measurement": "GI50", "setting": "[8]", "result": "19.7 µM (inactive)"}, {"measurement": "GI50", "setting": "[9]", "result": "15 µM (inactive)"}, {"measurement": "GI50", "setting": "[10]", "result": "15.2 µM (inactive)"}, {"measurement": "GI50", "setting": "[11]", "result": "16.4 µM (inactive)"}, {"measurement": "GI50", "setting": "[12]", "result": "16.3 µM (inactive)"}, {"measurement": "GI50", "setting": "[13]", "result": "16.4 µM (inactive)"}, {"measurement": "GI50", "setting": "[14]", "result": 17.6, "unit": "µM"}, {"measurement": "GI50", "setting": "[16]", "result": "18 µM (inactive)"}, {"measurement": "GI50", "setting": "[17]", "result": "16.8 µM (inactive)"}, {"measurement": "GI50", "setting": "[18]", "result": "19 µM (inactive)"}, {"measurement": "GI50", "setting": "[19]", "result": "14.7 µM (inactive)"}, {"measurement": "GI50", "setting": "[20]", "result": "16.2 µM (inactive)"}, {"measurement": "GI50", "setting": "[21]", "result": "19.5 µM (inactive)"}, {"measurement": "GI50", "setting": "[22]", "result": "18.2 µM (inactive)"}, {"measurement": "GI50", "setting": "[23]", "result": "22.7 µM (inactive)"}, {"measurement": "GI50", "setting": "[24]", "result": "13.8 µM (inactive)"}, {"measurement": "GI50", "setting": "[27]", "result": "17.5 µM (inactive)"}, {"measurement": "GI50", "setting": "[53]", "result": "11.7 µM (inactive)"}, {"measurement": "GI50", "setting": "[28]", "result": "10.1 µM (inactive)"}, {"measurement": "GI50", "setting": "[29]", "result": "19.5 µM (inactive)"}, {"measurement": "GI50", "setting": "[30]", "result": "17.2 µM (inactive)"}, {"measurement": "GI50", "setting": "[31]", "result": "15.1 µM (inactive)"}, {"measurement": "GI50", "setting": "[32]", "result": "13.7 µM (inactive)"}, {"measurement": "GI50", "setting": "[33]", "result": "17.7 µM (inactive)"}, {"measurement": "GI50", "setting": "[54]", "result": "18.3 µM (inactive)"}, {"measurement": "GI50", "setting": "[34]", "result": "17.9 µM (inactive)"}, {"measurement": "GI50", "setting": "[35]", "result": "18.2 µM (inactive)"}, {"measurement": "GI50", "setting": "[36]", "result": "17.3 µM (inactive)"}, {"measurement": "GI50", "setting": "[37]", "result": "16.7 µM (inactive)"}, {"measurement": "GI50", "setting": "[38]", "result": "18.4 µM (inactive)"}, {"measurement": "GI50", "setting": "[55]", "result": "16.5 µM (inactive)"}, {"measurement": "GI50", "setting": "[39]", "result": "15.8 µM (inactive)"}, {"measurement": "GI50", "setting": "[40]", "result": "17.5 µM (inactive)"}, {"measurement": "GI50", "setting": "[41]", "result": "17.3 µM (inactive)"}, {"measurement": "GI50", "setting": "[42]", "result": "18.4 µM (inactive)"}, {"measurement": "GI50", "setting": "[43]", "result": "51.1 µM (inactive)"}, {"measurement": "GI50", "setting": "[44]", "result": "13.7 µM (inactive)"}, {"measurement": "GI50", "setting": "[45]", "result": "14.1 µM (inactive)"}, {"measurement": "GI50", "setting": "[46]", "result": "14.2 µM (inactive)"}, {"measurement": "GI50", "setting": "[47]", "result": "> 10 µM (inactive)"}, {"measurement": "GI50", "setting": "[48]", "result": "18.3 µM (inactive)"}, {"measurement": "GI50", "setting": "[56]", "result": "19.5 µM (inactive)"}, {"measurement": "GI50", "setting": "[49]", "result": "18.2 µM (inactive)"}, {"measurement": "GI50", "setting": "[51]", "result": "15 µM (inactive)"}, {"measurement": "GI50", "setting": "[57]", "result": "24.8 µM (inactive)"}, {"measurement": "GI50", "setting": "[52]", "result": "15.5 µM (inactive)"}, {"measurement": "GI50", "setting": "[58]", "result": "17.8 µM (inactive)"}]}
